Consider 13 compounds from ChEMBL document CHEMBL1131817, “Structure-based design of irreversible, tripeptidyl human rhinovirus 3C protease inhibitors containing N-methyl amino acids” (Bioorg Med Chem Lett, 1999).

The subject of test [1] is Human rhinovirus sp. The experiment in a line: Inhibitory activity against Human RhinoVirus serotype-14 3C Protease; NI means No inhibition to 50 uM. Format: functional, organism-based.
The target of test [2] is T1, Human rhinovirus A protease (Human rhinovirus sp.) (UniProt Q4U254).
T1 sequence (whole entry): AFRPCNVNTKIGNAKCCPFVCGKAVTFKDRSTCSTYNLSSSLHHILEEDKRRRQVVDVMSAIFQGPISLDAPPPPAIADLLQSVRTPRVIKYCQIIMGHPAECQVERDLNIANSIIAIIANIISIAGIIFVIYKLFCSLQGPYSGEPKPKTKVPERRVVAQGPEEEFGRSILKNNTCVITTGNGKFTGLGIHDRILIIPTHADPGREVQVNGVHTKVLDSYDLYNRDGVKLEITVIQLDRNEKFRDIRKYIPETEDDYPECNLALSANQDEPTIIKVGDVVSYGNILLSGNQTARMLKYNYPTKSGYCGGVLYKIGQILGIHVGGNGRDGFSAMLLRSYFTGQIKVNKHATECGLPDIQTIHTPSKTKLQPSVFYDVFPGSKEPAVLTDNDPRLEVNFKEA
Description: Inhibitory activity against Human RhinoVirus serotype-14 3C Protease. The format is functional. To be noted: rhinovirus B14.

For test [3], the system named is Human rhinovirus sp. The experiment in a line: In vitro antiviral activity against HRV serotype-14. Format: functional, organism-based.

As to `CCOC(=O)/C=C/[C@H](CCC(N)=O)N(C)C(=O)[C@H](Cc1ccccc1)NC(=O)[C@H](CC(C)C)NC(=O)OCc1ccccc1`, the “k obs / 1” value in the test on Human rhinovirus sp. [1] is “No inhibition”.

In turn, `CCOC(=O)/C=C/[C@H](CCC(N)=O)NC(=O)[C@H](Cc1ccccc1)NC(=O)[C@H](CC(C)C)N(C)C(=O)OCc1ccccc1` registered a k obs / 1 in test [2] of 100 M⁻¹ s⁻¹. Compound `CCOC(=O)/C=C/[C@H](CCC(N)=O)NC(=O)[C@H](Cc1ccc(F)cc1)N(C)C(=O)[C@H](CC(C)C)NC(=O)c1cc(C)on1` gave a k obs / 1 in test [2] of 59300 M⁻¹ s⁻¹. For the same compound, a half-maximal effect in the test on Human rhinovirus sp. [3] (EC50) was put at 400 nM. On the same counts, the results for `CCOC(=O)/C=C/[C@H](CCC(N)=O)NC(=O)[C@H](Cc1ccccc1)N(C)C(=O)[C@H](CC(C)C)NC(=O)c1cc(C)on1` are 108000 M⁻¹ s⁻¹ and 140 nM. In the same order, the values of `CCOC(=O)/C=C/[C@H](CCC(N)=O)NC(=O)[C@H](Cc1ccccc1)N(C)C(=O)[C@H](CSc1ccccc1)NC(=O)SC1CCCC1` are 36800 M⁻¹ s⁻¹ and 540 nM.

For the compound `CCOC(=O)/C=C/[C@H](CCC(N)=O)NC(=O)[C@H](Cc1ccccc1)N(C)C(=O)[C@H](CC(C)C)NC(=O)SC1CCCC1`, the k obs / 1 in test [2] stood at 17300 M⁻¹ s⁻¹. The response in the test on Human rhinovirus sp. [3] was half-maximal at 320 nM (EC50). In the same order, the values of `CCOC(=O)/C=C/[C@H](CCC(N)=O)NC(=O)[C@H](Cc1ccccc1)NC(=O)[C@H](CC(C)C)NC(=O)OCc1ccccc1` are 25000 M⁻¹ s⁻¹ and 540 nM. The compound `CCOC(=O)/C=C/[C@H](CCC(N)=O)NC(=O)[C@H](Cc1ccc(F)cc1)N(C)C(=O)[C@H](Cc1ccc2ccccc2c1)NC(=O)c1cc(C)on1` gave a k obs / 1 in test [2] of 144000 M⁻¹ s⁻¹. Besides, the EC50 (as a rule, the concentration giving half of the maximal effect) with Human rhinovirus sp. [3] came out at 160 nM. `CCOC(=O)/C=C/[C@H](CCC(N)=O)NC(=O)[C@H](Cc1ccc(F)cc1)N(C)C(=O)[C@H](Cc1c[nH]cn1)NC(=O)c1cc(C)on1` gave a k obs / 1 in test [2] of 66000 M⁻¹ s⁻¹. In the test with Human rhinovirus sp. [3], the EC50 amounted to 1800 nM. On the same counts, the results for `CCOC(=O)/C=C/[C@H](CCC(N)=O)NC(=O)[C@H](Cc1ccccc1)N(C)C(=O)[C@@H](NC(=O)SC1CCCC1)C(C)C` are 22500 M⁻¹ s⁻¹ and 190 nM. On the same counts, the results for `CCOC(=O)/C=C/[C@H](CCC(N)=O)NC(=O)[C@H](Cc1ccc(F)cc1)N(C)C(=O)[C@H](Cc1cccc2ccccc12)NC(=O)c1cc(C)on1` are 95800 M⁻¹ s⁻¹ and 200 nM. On the same counts, the results for `CCOC(=O)/C=C/[C@H](CCC(N)=O)NC(=O)[C@H](Cc1ccccc1)N(C)C(=O)[C@H](CC(C)C)NC(=O)OCc1ccccc1` are 5300 M⁻¹ s⁻¹ and 1000 nM.

Compound `CCOC(=O)/C=C/[C@H](C[C@@H]1CCCNC1=O)NC(=O)[C@H](Cc1ccc(F)cc1)N(C)C(=O)[C@H](CC(C)C)NC(=O)c1cc(C)on1` registered a k obs / 1 in test [2] of 610000 M⁻¹ s⁻¹. In the test with Human rhinovirus sp. [3], this compound gave a 50% effective concentration (EC50) of 30 nM.
